Results on six compounds are retold here after patent US10800812B2, “Compstatin analogs with increased solubility and improved pharmacokinetic properties” (The Trustees of the University of Pennsylvania, priority 2018, dated 2020).

Converted amounts (≈) assume the structure as drawn.

Data set [1] can be described thus: Residence time in the vitreous after intravitreal injection (WES / SPR competition assay). The data set is classed as in vivo, cynomolgus monkeys. Particulars: single i.v.t. injection 0.5 mg; days 14-90. As to the method:
To determine the residence time of mPEG(3k)-Cp40, mPEG(1k)-Cp40, Cp40-KK, and Cp40-KKK in the vitreous of cynomolgus macaques, these Cp40-based analogs were administered intravitreally (i.v.t.) to the animals after induction of light ketamine anesthesia (10-15 mg/kg, by intramuscular injection (i.m.)) and dilation of the pupils with tropicamide/phenylephrine ophthalmic solution (see Table 6 for study design).
For i.v.t. injection, the cynomolgus monkeys were anesthetized with a combination of ketamine (15-25 mg/kg, i.m.) and xylazine (2 mg/kg, i.m.) and the eye was cleaned with povidone-iodine solution. After application of oxybuprocaine hydrochloride solution (Benoxil® ophthalmic solution 0.4%) to the cornea as a local anesthetic, the Cp40-based analogs were administered to the animals by i.v.t. injection into either the right (G1, G3) or left (G2, G4) eye of each animal. Immediately following each injection, a single topical dose of 0.5% levofloxacin was administered. After i.v.t. injection of mPEG(3k)-Cp40, mPEG(1k)-Cp40, Cp40-KK, and Cp40-KKK, vitreous fluid samples (about 50 μL each) were withdrawn from Cp40-based analog-treated eyes on days 14, 28, 42, (G1, G2, G3, G4), 56, 73, 90 (G1, G2) (this was done either three times or six times). Samples were collected on ice and stored in a deep freezer (−79.3 to −68.5° C.) until further analysis. On day 73 and 90, about 100 μL of vitreous fluid from G1 and G2 were withdrawn. Presence and concentration of the Cp40-based analogs was determined using either the simple western technology (WES, ProteinSimple, San Jose, Calif.), or surface plasmon resonance (SPR)-based real-time measurement of binding kinetics on a Cp40-KKK immobilized chip (see detailed methods below). Similar results with regard to the intravitreal residence time and concentration levels of the test compounds were obtained regardless of the quantification method selected.
To quantify the levels of all test compounds in vitreous samples collected at different time points following i.v.t. injection (see FIG. 15), WES analysis was performed on a WES instrument (ProteinSimple, San Jose, Calif.) using a 2 to 40 kDa Separation Module and Anti-Rabbit Detection Module according to the manufacturers' instructions. In brief, undiluted eye vitreous samples were mixed with a Fluorescent Master Mix and heated at 95° C. for 5 min. The samples, blocking reagent, primary antibodies (in house developed anti-Cp40; 1:1000 in blocking reagent), HRP-conjugated secondary antibody (anti-rabbit IgG) and chemiluminescent substrate were pipetted into the plate (part of Separation Module). The used instrument settings were: stacking and separation at 375 V for 27 min; blocking reagent for 30 min, primary and secondary antibody both for 30 min; Luminol/peroxide chemiluminescence detection for ˜15 min (exposures of 5, 15, 30, 60, 120, 240, and 480 s). The resulting electropherograms were evaluated using the Compass software (ProteinSimple, San Jose, Calif.). The following criteria were used to discriminate low peptide signals from background: The peak signal-to-noise (S/N) ratio given by the software must be ≥10, and the peak height/baseline ratio (calculated manually from the peak height and baseline values given by the software) must be equal to or greater than 3. A five-point standard curve of known concentrations (100-2,000 nM) of peptide spiked in rabbit vitreous was used to calculate peptide concentration in the vitreous samples using the Compass software (Compass Software Inc., Atlanta, Ga.). […] Shown in FIG. 15 is a representative standard curve generated using the WES system and bands obtained upon running pre-determined amounts of purified peptide spiked into rabbit vitreous samples.
To corroborate the WES-based measurements for all test compounds, an SPR-based competition assay was developed for detecting Cp40 and Cp40 analogs in biological samples. […] The samples were heated at 95° C. for 5 min. […]

Data set [2] in a line: Pharmacokinetics after single i.v. injection. More on the design: species or system cynomolgus monkeys. Particulars: cynomolgus monkey, in vivo, iv. The method, then: In vivo pharmacokinetic studies were conducted, in which cynomolgus monkeys were administered single i.v. injections of mPEG(1k)-Cp40, mPEG(3k)-Cp40, Cp40-KK, or Cp40-KKK.
The nature of data set [3]: Lys cleavage fragments in NHP plasma after s.c. injection (UPLC-ESI-MS). It counts as in vivo, cynomolgus monkeys. Conditions: 4 h after the s.c. injection of Cp40-KKK, one monkey.
Data set [4] has as its system classical pathway activation (C3b deposition). As to the kind of experiment: Classical pathway activation ELISA (C3b deposition) with or without rabbit vitreous. It counts as biochemical, human. Particulars: in the absence of vitreous. As to the method:
An alternative explanation to the one presented above is that the vitreous contains additional unidentified factors that associate with the Cp40-KKK analog. To investigate whether an unidentified vitreous factor impacts the complement inhibitory activity of lysine containing compounds, complement activation assays were performed using vitreous samples. Briefly, human plasma was incubated with OVA-anti-OVA immune-complexes in the presence of serial dilutions of the Cp40-based analogs mixed with rabbit vitreous. Levels of classical pathway activation (C3b deposition) were determined by ELISA using a polyclonal anti-human C3 antibody conjugated with HRP (MP Biomedicals, Solon, Ohio) (FIG. 20).

For another data set, the target named is T1, human C3b (Homo sapiens, UniProt P01024).
T1 construct: purchased Complement Technology, Inc., Tyler, Tex
As to the kind of experiment: SPR binding affinity and kinetics with C3b. Conditions: 25° C., 1:1 Langmuir model; read-out: ka, association constant.

The nature of data set [5]: Solubility of Cp40-based analogs in PBS. Particulars: for pH of the peptide solution in PBS: at the solubility concentration; for solubility: PBS, pH 7.4, Conc. (solubility in PBS), PBS (pH 7.4).
The nature of the next data set: physchem. Particulars: pH 7.4, Conc. (solubility in PBS).
The nature of data set [6]: Pharmacokinetics after single i.m. injection. Particulars: cynomolgus monkey, in vivo, im, 25 mg/kg.
A short description of data set [7]: Pharmacokinetics in NHP plasma after single s.c. injection. Particulars: 2 mg/kg, NHP plasma, two animals.
Setting [8] is: single s.c. 2 mg/kg, listed as Cp40-KK (SUM).

T1 sequence (P01024 23-667 limits assumed): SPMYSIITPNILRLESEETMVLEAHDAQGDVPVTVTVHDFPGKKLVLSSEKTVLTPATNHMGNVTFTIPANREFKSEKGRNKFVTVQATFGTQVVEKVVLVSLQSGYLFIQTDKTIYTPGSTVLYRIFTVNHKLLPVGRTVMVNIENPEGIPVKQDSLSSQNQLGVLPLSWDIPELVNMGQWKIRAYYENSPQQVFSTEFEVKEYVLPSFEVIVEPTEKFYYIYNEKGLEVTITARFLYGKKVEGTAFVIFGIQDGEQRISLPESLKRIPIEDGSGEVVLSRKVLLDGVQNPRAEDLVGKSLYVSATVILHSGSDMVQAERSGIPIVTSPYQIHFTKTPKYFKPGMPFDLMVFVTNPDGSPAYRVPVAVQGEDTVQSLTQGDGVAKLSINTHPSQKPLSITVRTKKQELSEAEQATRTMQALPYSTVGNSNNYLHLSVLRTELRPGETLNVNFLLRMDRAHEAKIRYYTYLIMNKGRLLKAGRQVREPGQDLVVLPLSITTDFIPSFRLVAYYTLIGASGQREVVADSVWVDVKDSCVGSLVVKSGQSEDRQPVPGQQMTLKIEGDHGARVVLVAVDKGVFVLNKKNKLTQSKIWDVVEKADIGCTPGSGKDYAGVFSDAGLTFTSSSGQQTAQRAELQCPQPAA
T1 sequence (P01024 749-1663 partner limits assumed): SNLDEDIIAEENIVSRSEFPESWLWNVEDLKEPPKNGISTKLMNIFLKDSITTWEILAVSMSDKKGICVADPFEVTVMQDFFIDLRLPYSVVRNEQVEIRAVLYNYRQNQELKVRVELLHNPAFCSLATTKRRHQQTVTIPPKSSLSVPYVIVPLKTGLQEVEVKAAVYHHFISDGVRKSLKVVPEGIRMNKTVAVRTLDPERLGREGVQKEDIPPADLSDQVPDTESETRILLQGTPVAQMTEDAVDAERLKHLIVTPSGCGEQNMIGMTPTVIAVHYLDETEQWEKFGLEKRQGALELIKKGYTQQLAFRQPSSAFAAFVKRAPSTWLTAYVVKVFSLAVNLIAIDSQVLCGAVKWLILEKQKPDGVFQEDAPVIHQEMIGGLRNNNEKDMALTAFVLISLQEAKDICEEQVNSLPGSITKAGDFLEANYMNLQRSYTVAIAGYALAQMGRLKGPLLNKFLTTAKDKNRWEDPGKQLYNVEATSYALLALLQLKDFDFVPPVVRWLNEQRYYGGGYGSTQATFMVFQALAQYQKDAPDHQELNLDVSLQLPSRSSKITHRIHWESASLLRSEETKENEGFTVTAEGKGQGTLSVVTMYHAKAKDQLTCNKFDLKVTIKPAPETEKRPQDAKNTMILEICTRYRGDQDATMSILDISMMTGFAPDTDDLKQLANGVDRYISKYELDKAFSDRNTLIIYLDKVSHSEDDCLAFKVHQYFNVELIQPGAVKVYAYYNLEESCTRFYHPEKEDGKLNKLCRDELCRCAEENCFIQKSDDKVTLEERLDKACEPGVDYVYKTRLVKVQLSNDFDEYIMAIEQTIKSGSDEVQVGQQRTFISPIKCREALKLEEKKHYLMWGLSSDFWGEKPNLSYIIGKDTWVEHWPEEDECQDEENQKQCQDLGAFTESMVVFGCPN

In the case of “mPEG(1k)-Cp40: N-terminus of Cp40 coupled to polydisperse PEG chain of 1 kDa via amide coupling”, the “detection in the vitreous at time points post-injection” value in [1] is recorded as “detected at day 14 post injection but not in later time points”. For the same compound, the AUC0-120 h in [2] was in the range of 304.4 to 312 µM·h.

In the case of `CC[C@H](C)[C@H](NC(=O)[C@H](N)Cc1ccc(O)cc1)C(=O)N[C@H]1CSSC[C@@H](C(=O)N(C)[C@H](C(=O)N[C@@H](CCCCN)C(N)=O)[C@@H](C)CC)NC(=O)[C@H](CCCNC(=N)N)NC(=O)[C@H](Cc2c[nH]cn2)NC(=O)[C@H](C)NC(=O)CN(C)C(=O)[C@H](Cc2c[nH]c3ccccc23)NC(=O)[C@H](CC(=O)O)NC(=O)[C@H](CCC(N)=O)NC(=O)[C@H](Cc2cn(C)c3ccccc23)NC(=O)[C@H](C(C)C)NC1=O` [Cp40-K, DTyr-Ile-[Cys-Val-Trp(Me)-Gln-Asn-Trp-Sar-Ala-His-Arg-Cys]-mIle-Lys-NH2], the “Cp40-K detectable in plasma” value in data set [3] turned out to be 5 µM. In addition, the “complement classical pathway inhibitory activity” value in [4] is “inhibitory activity in a dose-dependent manner”. Also, the kon at human C3b came to 1.98e+06 M⁻¹ s⁻¹. Further, the “pH of the peptide solution in PBS” value in data set [5] amounted to 7.5.

Take “mPEG(2k)-Cp40: N-terminus of Cp40 coupled to polydisperse PEG chain of 2 kDa via amide coupling”: the “pH of the peptide solution in PBS” value in data set [5] is listed as 7.5.

Regarding `CC[C@H](C)[C@H](NC(=O)[C@@H](Cc1ccc(O)cc1)NC(=O)CCOCCOCCOCCOCCOCCOCCOCCOCCOCCOCCOCCOC)C(=O)N[C@H]1CSSC[C@@H](C(=O)N(C)[C@H](C(N)=O)[C@@H](C)CC)NC(=O)[C@H](CCCNC(=N)N)NC(=O)[C@H](Cc2c[nH]cn2)NC(=O)[C@H](C)NC(=O)CN(C)C(=O)[C@H](Cc2c[nH]c3ccccc23)NC(=O)[C@H](CC(=O)O)NC(=O)[C@H](CCC(N)=O)NC(=O)[C@H](Cc2cn(C)c3ccccc23)NC(=O)[C@H](C(C)C)NC1=O` [mPEG(528)-Cp40], on human C3b, the kon is 1e+06 M⁻¹ s⁻¹. The concentration in solution in data set [5] (solubility) was 2.3 mg/mL (≈ 0.975 mM).

On to `CC[C@H](C)[C@H](NC(=O)[C@H](N)Cc1ccc(O)cc1)C(=O)N[C@H]1CSSC[C@@H](C(=O)N(C)[C@H](C(=O)N[C@@H](CCCCN)C(=O)N[C@@H](CCCCN)C(N)=O)[C@@H](C)CC)NC(=O)[C@H](CCCNC(=N)N)NC(=O)[C@H](Cc2c[nH]cn2)NC(=O)[C@H](C)NC(=O)CN(C)C(=O)[C@H](Cc2c[nH]c3ccccc23)NC(=O)[C@H](CC(=O)O)NC(=O)[C@H](CCC(N)=O)NC(=O)[C@H](Cc2cn(C)c3ccccc23)NC(=O)[C@H](C(C)C)NC1=O` [Cp40-KK, DTyr-Ile-[Cys-Val-Trp(Me)-Gln-Asn-Trp-Sar-Ala-His-Arg-Cys]-mIle-Lys-Lys-NH2], for which the “detection in the vitreous at time points post-injection” value in [1] was “no longer detected on day 90”. The solubility – broadly, how much of the substance goes into solution per volume – in “physchem” was over 245 mg/mL. The “complement classical pathway inhibitory activity” value in data set [4] is on record as “inhibitory activity in a dose-dependent manner”. Further, the kon at human C3b was 3.94e+06 M⁻¹ s⁻¹. The half-life (as a rule, how long it takes for the measured level to halve) in data set [6] is about 192 h; in data set [2] (single i.v. injection 2 mg/kg), 49.2 h; in [7] (male, cynomolgus monkey, plasma, sc, t1/2, single s.c. 2 mg/kg), 145 h. Besides, the “Lys cleavage in plasma upon i.v. injection” value in [2] is reported as “metabolized to minimal amounts of Cp40-K”. Further, in [7] (male, cynomolgus monkey, plasma, sc, AUC0-t (0-120 h), single s.c. 2 mg/kg), the AUC(0-t) (in general, exposure summed from dosing to a finite time, without extrapolation to infinity) turned out to be 329 µM·h. In addition, the AUC(0-inf) (usually total exposure, with the tail of the curve extrapolated) in [7] (male, cynomolgus monkey, plasma, sc, AUCinf, single s.c. 2 mg/kg) worked out at 597 µM·h. Besides, the Cmax (usually the maximum level reached in the sampled fluid or tissue) in data set [7] (male, cynomolgus monkey, plasma, sc, Cmax, single s.c. 2 mg/kg) turned out to be 12.9 µM; in data set [7] (setting [8]), 9.26 µM. Further, the Tmax – broadly, the time from dosing to the highest level – in data set [7] (male, cynomolgus monkey, plasma, sc, tmax, single s.c. 2 mg/kg) came to 1 h. Further, in [7] (single s.c. 2 mg/kg), the t1/2 was 276 h. The “AUC0-t (0-120 h)” value in data set [7] (setting [8]) was found to be 257 µM·h. In [7] (setting [8]), this compound yielded an AUCinf of 755 µM·h.

For `CC[C@H](C)[C@H](NC(=O)[C@@H](Cc1ccc(O)cc1)NC(=O)CCOCCOCCOCCOCCOCCOCCOCCOCCOCCOCCOCCOCCOCCOCCOCCOCCOCCOCCOCCOCCOCCOCCOCCOC)C(=O)N[C@H]1CSSC[C@@H](C(=O)N(C)[C@H](C(N)=O)[C@@H](C)CC)NC(=O)[C@H](CCCNC(=N)N)NC(=O)[C@H](Cc2c[nH]cn2)NC(=O)[C@H](C)NC(=O)CN(C)C(=O)[C@H](Cc2c[nH]c3ccccc23)NC(=O)[C@H](CC(=O)O)NC(=O)[C@H](CCC(N)=O)NC(=O)[C@H](Cc2cn(C)c3ccccc23)NC(=O)[C@H](C(C)C)NC1=O` [mPEG(1056)-Cp40], the kon at human C3b was 720000 M⁻¹ s⁻¹. This compound also returned a solubility in data set [5] of 137 mg/mL (≈ 47.4 mM).
